The record followed here is ChEMBL document CHEMBL4819101, “Design, synthesis and molecular docking studies of thymol based 1,2,3-triazole hybrids as thymidylate synthase inhibitors and apoptosis inducers against breast cancer cells” (Bioorg Med Chem, 2021).

Experiment [1] deals with MCF7. Put plainly: cells. The note with it: Homo sapiens, MCF7, 72 h.
Description: Cytotoxicity against human MCF7 cells assessed as cell growth inhibition incubated for 72 hrs by MTT assay
Experiment [2] concerns MDA-MB-231. Put plainly: cells. As to conditions: Homo sapiens, MDA-MB-231, 72 h.
Description: Cytotoxicity against human MDA-MB-231 cells assessed as cell growth inhibition incubated for 72 hrs by MTT assay
For experiment [3], the target named is T1, Thymidylate synthase (Homo sapiens, UniProt P04818). Put plainly: Inhibition of human thymidylate synthase expressed in Escherichia coli using 6R,S-tetrahydrofolate and dUMP as substrate by spectrophotometric analysis.
The test system of experiment [4] is MDA-MB-231. Put plainly: Potency index, ratio of tamoxifen IC50 to test compound IC50 for cytotoxicity against human MDA-MB-231 cells assessed as cell growth inhibition incubated for 72 hrs by MTT assay. It counts as functional. Background: Formazan colour is commonly taken as a measure of viable cells.
Experiment [5] deals with MCF7. Put plainly: Potency index, ratio of 5-fluorouracil IC50 to test compound IC50 for cytotoxicity against human MCF7 cells assessed as cell growth inhibition incubated for 72 hrs by MTT assay. It counts as functional.
The subject of experiment [6] is MDA-MB-231. Put plainly: Potency index, ratio of 5-fluorouracil IC50 to test compound IC50 for cytotoxicity against human MDA-MB-231 cells assessed as cell growth inhibition incubated for 72 hrs by MTT assay. It counts as functional.
The subject of experiment [7] is HEK293. Put plainly: Cytotoxicity against human HEK293 cells assessed as cell growth inhibition incubated for 72 hrs by MTT assay. It counts as cell-based. The note with it: HEK293, 72 h.
Experiment [8] relates to MCF7. Put plainly: Induction of cell cycle arrest in human MCF7 cells assessed as increase in accumulation at G2/M phase at 10 uM incubated for 48 hrs by PI staining based flow cytometry analysis relative to control. Format: functional. (In general: In flow cytometry, cells or beads pass a laser one at a time.)
Experiment [9] has as its system MCF7. Put plainly: Induction of cell cycle arrest in human MCF7 cells assessed as accumulation at sub-G1 phase at 10 uM incubated for 48 hrs by PI staining based flow cytometry analysis (reference value: 3.7 %). It counts as functional.
The test system of experiment [10] is MCF7. Put plainly: Induction of apoptosis in human MCF7 cells assessed as total apoptotic cells at 10 uM incubated for 48 hrs by annexin-V-FITC and PI staining based flow cytometry analysis (reference value: 8.3 %). It counts as functional.
Experiment [11] has as its target T1, Thymidylate synthase. Put plainly: Inhibition of thymidylate synthase (unknown origin).

T1 sequence (P04818 whole entry): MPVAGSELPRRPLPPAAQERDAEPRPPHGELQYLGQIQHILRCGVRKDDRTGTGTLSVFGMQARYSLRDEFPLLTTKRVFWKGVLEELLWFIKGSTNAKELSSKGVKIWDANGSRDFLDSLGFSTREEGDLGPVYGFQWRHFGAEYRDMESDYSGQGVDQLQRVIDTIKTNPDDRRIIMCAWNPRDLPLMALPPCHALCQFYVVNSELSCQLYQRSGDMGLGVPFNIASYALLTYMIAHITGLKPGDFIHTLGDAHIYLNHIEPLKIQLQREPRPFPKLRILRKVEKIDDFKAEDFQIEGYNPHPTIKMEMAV

As a reminder, the IC50 is the concentration needed to halve the response being measured. As for `Cc1ccc(C(C)C)c(OCc2cn(-c3ccc(O)cc3)nn2)c1`, the values for the IC50 in experiment [1] and in experiment [2] were 45.4 µM and 30.4 µM, respectively.

As for `Cc1ccc(C(C)C)c(OCc2cn(-c3ccccc3)nn2)c1`, the results for the IC50 in experiment [1] and in [2] were 29.9 µM and 45.1 µM, respectively.

As for `Cc1cccc(-n2cc(COc3cc(C)ccc3C(C)C)nn2)c1`, the IC50 in [1] was determined as 28.1 µM; in experiment [2] it was 31.2 µM.

For the molecule `Nc1nc2[nH]cc(CCc3ccc(C(=O)N[C@@H](CCC(=O)O)C(=O)O)cc3)c2c(=O)[nH]1` [PEMETREXED], the 50% inhibitory concentration (IC50) in experiment [3] amounted to 5.39 µM.

Take `O=c1[nH]cc(F)c(=O)[nH]1` [FLUOROURACIL]: the results for the IC50 in experiment [1] and in experiment [2] were 20.1 µM and 25.3 µM, respectively.

Regarding `Cc1ccc(C(C)C)c(OCc2cn(-c3ccc([N+](=O)[O-])cc3)nn2)c1`, the IC50 is 32.2 µM in experiment [1] and 41 µM in experiment [2].

With `Cc1ccc(C(C)C)c(OCc2cn(-c3cccc(C(=O)O)c3)nn2)c1`, the figures for the “Ratio IC50” value in experiment [4], in experiment [5] and in experiment [6] were 1.3, 1.95 and 2.2, respectively. Besides, the IC50 was determined as 4.27 µM in [3], 10.3 µM in experiment [1] and 11.4 µM in experiment [2].

Take `Cc1ccc(C(C)C)c(OCc2cn(-c3ccccc3Cl)nn2)c1`: the “Ratio IC50” value in experiment [5] is 1.2. For the same molecule, the values for the IC50 in [1] and in experiment [2] were 15.6 µM and 26.6 µM, respectively.

As to `COc1ccc(-n2cc(COc3cc(C)ccc3C(C)C)nn2)cc1`, the IC50 is 25.4 µM in experiment [1] and 45.3 µM in experiment [2].

For `Cc1ccc(C(C)C)c(OCc2cn(-c3ccccc3C)nn2)c1`, the “Ratio IC50” value in experiment [4] is listed as 1.42; in [5], 3.2. Further, the IC50 was greater than 50 µM in [7], 2.21 µM in experiment [3], 6.17 µM in experiment [1] and 10.5 µM in experiment [2]. In addition, the figures for the Activity in experiment [8], in experiment [9] and in experiment [10] were 37.3%, 21.4% and 29.4%, respectively.

Regarding `CC/C(=C(\c1ccccc1)c1ccc(OCCN(C)C)cc1)c1ccccc1` [TAMOXIFEN], the IC50 in experiment [1] was 5.62 µM; in [2] it was 15 µM.

As to `Cc1ccc(C(C)C)c(OCc2cn(-c3ccc(F)cc3)nn2)c1`, the IC50 turned out to be 22.1 µM in [1] and 32.6 µM in experiment [2].

As to `Cc1ccc(C(C)C)c(OCc2cn(-c3cccc4c(-n5cc(COc6cc(C)ccc6C(C)C)nn5)cccc34)nn2)c1`, the results for the IC50 in experiment [1] and in [2] were 18.1 µM and 22.1 µM, respectively.

In experiment [11], `CCOC(=O)C1CCC(c2ccccc2)N1C(=O)c1cn(CCCNC(=O)C(F)(F)F)nn1` (stereo not given) showed an IC50 of 0.057 µM.

With `Cc1ccc(C(C)C)c(OCc2cn(-c3cccc(Cl)c3)nn2)c1`, the IC50 in experiment [1] was 32.1 µM; in [2], 45.2 µM.
